Test results reported in patent US20100168084A1, “Therapeutic compounds and related methods of use” (priority 2008, published 2010).
Read-outs that look alike come from different tables or passages of the source.

Target: T1, sirtuin protein (Homo sapiens, UniProt Q96EB6)
T1 sequence (Q96EB6 2-747 limits assumed): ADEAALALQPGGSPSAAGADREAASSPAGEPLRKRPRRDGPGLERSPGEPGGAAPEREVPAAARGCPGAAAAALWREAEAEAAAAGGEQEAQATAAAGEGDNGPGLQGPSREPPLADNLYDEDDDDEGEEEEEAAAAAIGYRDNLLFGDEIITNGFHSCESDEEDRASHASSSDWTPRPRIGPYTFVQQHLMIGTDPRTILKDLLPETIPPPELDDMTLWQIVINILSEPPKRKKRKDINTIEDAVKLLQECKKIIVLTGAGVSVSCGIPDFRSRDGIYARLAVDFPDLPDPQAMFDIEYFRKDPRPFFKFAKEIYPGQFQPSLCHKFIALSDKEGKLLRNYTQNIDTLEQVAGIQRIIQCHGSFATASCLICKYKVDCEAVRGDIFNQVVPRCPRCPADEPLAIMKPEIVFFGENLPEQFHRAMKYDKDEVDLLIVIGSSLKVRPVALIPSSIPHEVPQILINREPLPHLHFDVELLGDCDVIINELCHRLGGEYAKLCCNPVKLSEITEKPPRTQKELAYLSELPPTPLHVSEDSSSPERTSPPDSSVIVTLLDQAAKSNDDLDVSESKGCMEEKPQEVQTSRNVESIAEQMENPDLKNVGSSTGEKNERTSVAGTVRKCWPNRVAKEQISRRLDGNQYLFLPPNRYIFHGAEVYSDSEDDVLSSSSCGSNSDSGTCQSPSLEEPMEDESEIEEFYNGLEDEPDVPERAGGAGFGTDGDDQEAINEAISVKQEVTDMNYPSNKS
Experiment: MS assay (IC50 MS ASSAY / ED50 MS / FOLD ACTIVATION MS)
Format: biochemical
Design: scale not given here

[1] = MS assay, class symbols A′, A, B, D, NA, legend not given
[2] = Table 4, class symbols A′, A, B, D, NA, legend not given
[3] = class symbols (A′, A, B, D, NA), no legend given

SMILES	ED50 MS ASSAY [1]	ED50 MS ASSAY (Table 4)	ED50 MS ASSAY [2]	ED50 MS ASSAY (Table 4, class symbols)	ED50 MS ASSAY [3]	ED50 MS ASSAY
COc1ccc(C(=O)Nc2cccc(-c3nc4ccncc4o3)c2)c(OC)c1 [Compound 429]	A′	A′	A′	–	–	–
O=C(Nc1ccccc1-c1cn2c(CN3CCNCC3)csc2n1)c1cnc2ccccc2n1 [Compound 441]	A′	A′	A′	–	–	–
Cc1c(C(=O)Nc2ccccc2-c2cn3c(CN4CCNCC4)csc3n2)oc2ccccc12 [Compound 442]	A′	A′	A′	–	–	–
O=C(Nc1ccccc1-c1nc2ccccc2[nH]1)c1cnc2ccccc2n1 [Compound 508]	–	A′	A′	A′	A′	A′
O=C(Nc1ccccc1-c1cn2c(CN3CCNCC3)csc2n1)c1c[nH]c2ccccc12 [Compound 510]	–	A′	A′	A′	A′	A′
O=C(Nc1ccccc1-c1cn2c(CN3CCNCC3)csc2n1)c1c[nH]nc1-c1ccccc1 [Compound 512]	–	A′	A′	A′	A′	A′
O=C(Nc1ccccc1-c1cn2cc(CN3CCNCC3)sc2n1)c1cnc2ccccc2n1 [Compound 513]	–	A′	A′	A′	A′	A′
COc1ccc(C(=O)Nc2ccc(-c3nc4cnccc4s3)s2)c(OC)c1 [Compound 515]	–	A′	A′	A′	A′	A′
CN(C)c1cccc(C(=O)Nc2ccc(-c3nc4cnccc4s3)s2)c1 [Compound 518]	–	A′	A′	A′	A′	A′

Continued, values first:

ED50 MS ASSAY [1]	ED50 MS ASSAY (Table 4)	ED50 MS ASSAY [2]	ED50 MS ASSAY (Table 4, class symbols)	ED50 MS ASSAY [3]	ED50 MS ASSAY	SMILES
A′	A′	A′	–	–	–	COc1ccc(C(=O)Nc2ccccc2-c2cn3cccnc3n2)cc1OC [Compound 438]
A′	A′	A′	–	–	–	COc1cc(C(=O)Nc2ccccc2-c2cn3cccnc3n2)cc(OC)c1OC [Compound 439]
A′	A′	A′	–	–	–	COc1ccc(C(=O)Nc2ccccc2-c2nc3ccncc3o2)c(OC)c1 [Compound 455]
A′	A′	A′	–	–	–	COc1cc(OC)cc(C(=O)Nc2ccccc2-c2nc3ccncc3o2)c1 [Compound 456]
A′	A′	A′	–	–	–	CN(C)c1cccc(C(=O)Nc2ccccc2-c2nc3ccncc3o2)c1 [Compound 458]
A′	A′	A′	A′	A′	–	CN(C)c1ccc(C(=O)Nc2ccccc2-c2nc3ccncc3o2)cc1 [Compound 459]
–	–	–	A′	–	–	Cc1cc(C)cc(C(=O)Nc2ccccc2-c2nc3ncccc3o2)c1 [Compound 481]
–	A′	A′	–	A′	A′	Cc1cc(C)cc(C(=O)Nc2ccccc2-c2nc3ncccc3o2)c1 [Compound 482]
–	A′	A′	A′	A′	A′	COc1cc(C(=O)Nc2ccccc2-c2nc3ccccc3[nH]2)ccc1CN1CCOCC1 [Compound 503]
–	A′	A′	A′	A′	A′	COc1ccc(C(=O)Nc2ccc(C)cc2-c2nc3ccccc3[nH]2)cc1OC [Compound 507]
